Experimental findings from patent EP0401096A1, “Agents and complexes of ion Mg++ facilitating absorption of magnesium in a human or animal organism, and pharmaceutical or dietetic compositions useful for the administration of magnesium in a human or animal organism” (LABORATOIRES LUCIEN, priority 1989, dated 1990) are described below.

A short description of data set [1]: Magnesium balance in rats after oral administration (first experiment, 3 lots of 20). Type of data set: in vivo, rat. Conditions: mean (M), oral 38,88 mg de Mg2+/kg. As to the method: L'essai porte sur 60 rats mâles S.P.F. de souche "CD", d'un poids moyen de 60 à 80 g à leur arrivée. Ils sont maintenus en animalerie conventionnelle dans des conditions identiques de température (21°C +/- 1°C), d'hygrométrie (40 à 70 %) et de luminosité (12h/24).
Dès leur arrivée, les animaux sont placés en cage à métabolisme et reçoivent un aliment contenant 570 mg de Mg2+/kg : concentration nécessaire et suffisante pour maintenir chez l'animal une magnésémie normale.
4 jours après leur arrivée, au temps "t-16h" de l'essai, soit 16 h avant l'administration des traitements (temps "t"), les animaux sont pesés, mis à jeun et le volume d'eau déminéralisée mis à leur disposition est exactement mesuré.
Au temps "t-1h" soit 1 h avant l'administration des traitements, l'eau de boisson est retirée. Elle est redistribuée 30 minutes après cette administration, le volume étant exactement mesuré.
Au temps "t+24h" les animaux sont sacrifiés par dislocation cervicale et le contenu de la vessie et des intestins est prélevé.
Les animaux sont répartis en 3 lots de 20 animaux chacun : • . Lot I : Témoins recevant 40 ml/kg d'eau déminéralisée; • . Lot II : Traités recevant 38,88 mg de Mg2+/kg sous forme de MgCl2, sous un volume de 40 ml/kg d'eau déminéralisée; • . Lot III : Traités recevant l'association "MgCl2 + acide malique" à la dose de 38,88 mg de Mg2+/kg sous forme de MgCl2 + 408 mg d'acide malique/kg, sous un volume de 40 ml/kg d'eau déminéralisée (pH ajusté à 5), ce qui correspond à une concentration en magnésium CMg = 0,04 mol.dm-3 et à une concentration de (DL)-malate CDLM = 0,076 mol.dm-3.
• a/ - Avant traitement : "t - 16 h" à "t" . Recueil des urines et mesure du volume. . Mesure de la consommation hydrique/15 h (les animaux étant privés d'eau de boisson 1 h avant l'administration des traitements). • b/ - Traitement : "t" . Pesée des animaux. . Administration des traitements, voie orale, par tubage oesophagien. • c/ - Après traitement : "t" à "t + 24 h" • c.1. Exploration urinaire : . […]

A short description of data set [2]: Magnesium balance in rats after oral administration (experiment coded 1.33, 4 lots of 18). Type of data set: in vivo, rat. Conditions: mean (M), experiment 1.33. From the text:
D'autres expérimentations basées sur des protocoles comparables ont confirmé les résultats ci-dessus. Elles ne feront pas toutefois l'objet d'une présentation en détails. Seuls les résultats de l'expérimentation suivante mettant en jeu l'acide malique et l'acide citrique seront présentés de façon globale dans les tableaux 10 et 11 ci-après.
La nouvelle expérimentation (codée 1.33) a été réalisée sur 4 lots de 18 animaux chacun, les lots I, II et III recevant les mêmes traitements que ceux administrés aux lots correspondants dans le cadre de l'expérimentation précédente et le lot IV recevant l'association "MgCl2 + acide citrique" à la dose de 38,88 mg de Mg2+/kg sous forme de MgCl2 + 1345 mg d'acide citrique/kg, sous un volume de 40 ml/kg d'eau déminéralisée (pH ajusté à 5), ce qui correspond à une concentration en magnésium CMg = 0,04 mol.dm-3 et à une concentration de citrate CTA = 0,16 mol.dm-3. Tableau 10

Data set [3] is described as follows: Potentiometric titration, formation constants of magnesium-ligand complexes ([…], ZAPAPLOT, PSEUDOPLOT). The following applies: magnésium-malonate, 37°C. It is filed as physicochemical. The source says:
La complexation dans chaque système magnésium-ligand a ensuite été étudiée à partir de plusieurs titrages en solution aqueuse du ligand en présence de magnésium, pour différents rapports de concentrations métal-ligand correspondant à l'éventail le plus large possible de conditions thérapeutiques. Ces dosages se traduisent graphiquement par le tracé des courbes de protonation s = f ( -log[H] ), où s est le nombre moyen de protons liés au ligand. Ce type de courbes permet de visualiser la complexation. Par exemple, sur la figure 1, relative au système magnésium-malonate, on a représenté la courbe de protonation de référence du ligand par un trait plein et matérialisé les points expérimentaux des titrages du ligand en présence de magnésium par les symboles +, x, , □, ◁ dans l'ordre des rapports de concentrations métal/ligand croissants. On remarque deux zones de pH différentes : - l'une, de pH 2 à 3, pour laquelle les points se superposent à la courbe de protonation de référence, ce qui dénote une absence totale de complexation, - l'autre, de pH 3 à 7, pour laquelle les points sont décalés vers la gauche par rapport à la protonation de référence, c'est-à-dire vers des pH plus acides. Il y a donc une libération d'ions H+ en solution due à la complexation des ions Mg2+ par le malonate.
Cette complexation est confirmée par le tracé de la courbe de formation expérimentale p = f ( -log [L] ) au moyen d'un autre programme (ZAPAPLOT) où p est le nombre moyen de ligands liés au métal (représenté par le degré de formation DF à la figure 2). L'allure de cette courbe donne une idée de la forme sous laquelle le ligand intervient dans les complexes formés et permet d'estimer la valeur de leurs constantes de formation.
(§1) A partir des données expérimentales des titrages, le programme […] calcule les constantes par la méthode des moindres carrés. Parmi les différentes combinaisons de complexes possibles, seules sont retenues celles pour lesquelles les critères numériques (notamment la somme des carrés des résidus) sont convenables. Le meilleur ensemble est finalement choisi d'après le tracé des courbes de formation simulées au moyen d'un troisième programme informatique (PSEUDOPLOT) : c'est celui qui permet d'obtenir la meilleure coïncidence entre courbes expérimentale (figure 2) et simulée (figure 3).

Data set [4] can be described thus: Potentiometric titration, protonation constants of the ligand ([…]). Conditions: proton-malonate, aqueous solution, 37°C. It is filed as physicochemical. The protocol:
La méthode potentiométrique associée aux techniques informatiques a été utilisée pour cette étude. Les constantes de protonation du ligand, utilisées par la suite comme références, ont été calculées au moyen d'un programme informatique ([…]) à partir de données expérimentales provenant de titrages réalisés en solution aqueuse à 37°C et sous atmosphère d'azote.
as §1

Data set [5] can be described thus: Potentiometric titration, formation constants of calcium-ligand complexes. Type of data set: physicochemical. The following applies: calcium-malonate, complexe ML (charge 0); 37°C. From the text:
Trois cas possibles a priori ont été effectivement rencontrés : • i) si aucune complexation n'est constatée dans les conditions expérimentales précisées plus haut, c'est à dire si le degré de complexation reste nul sur tout le domaine de concentrations en ligand examiné, aucune espèce complexe indépendante ne peut exister dans le fluide gastro-intestinal. Ceci ne signifie pas que les ligands envisagés ne puissent pas coordonner le magnésium à des concentrations beaucoup plus élevées, mais cette possibilité se rapportant à des conditions extra-physiologiques ne présente pas d'intérêt dans le cadre de l'invention. • ii) si l'ensemble de complexes sélectionné d'après les critères ci-dessus n'est constitué que d'espèces ionisées, il est impossible à ces dernières de se dissoudre dans la membrane phospholipidique; les ligands correspondants ne peuvent donc être utilisés comme vecteurs pour l'absorption gastro-intestinale du magnésium. • iii) si l'ensemble retenu contient une ou plusieurs espèces neutres, les ligands correspondants peuvent être a priori des vecteurs efficaces pour l'absorption du magnésium par les membranes séparant le biofluide d'un biofluide voisin. Leur efficacité dépendra toutefois de la proportion de ces espèces neutres dans les conditions thérapeutiques. […]

[6] abbreviates: coefficient d'utilisation digestive.

Regarding `[Cl-].[Cl-].[Mg+2]` [Lot II, MgCl2], the C. abs. in data set [1] (coefficient d'absorption) is 38,948; in data set [2] (coefficient d'absorption), 30,19. Moreover, the C.u.d. in data set [1] (setting [6]) is listed as 73,617; in data set [2] (setting [6]) it was 66,89. Also, the C.r. is recorded as 50,083 in data set [1] (coefficient de rétention) and 43,78 in data set [2] (coefficient de rétention). Moreover, in data set [2] (faecal magnesium, oral 38,88 mg de Mg2+/kg), the MgF/24 h was 2,003 mg/100 g de rat. Besides, the MgU/24 h in data set [2] (urinary magnesium, oral 38,88 mg de Mg2+/kg) is recorded as 1,873 mg/100 g de rat.
For the compound `O=C(O)CC(=O)O` [MLO, malonate], the “log β” value in data set [3] (complexe ML3) was 5,266; in data set [3] (complexe ML (charge 0)), 2,064; in data set [3] (complexe MLH-1), 6,326; in data set [3] (complexe MLH), 5,524; in data set [4] (complexe LH2), 7,815; in data set [4] (complexe LH), 5,235. Also, the “log β” value in data set [5] was 1,511.
